Results on twelve compounds are retold here after patent US20250085273A1, “NOVEL RAPID DRUG DISCOVERY FOR SEPSIS AND AGENTS FOR USE AS SEPSIS THERAPY” (priority 2023, published 2025).

Where a name gives a salt, the structure may show the parent alone.

Type in all cases: in vivo, Danio rerio
The test system of test [1] is 3-dpf Zebrafish Embryos Challenged with LPS (P. aeruginosa 60 μg/mL). The following applies: P. aeruginosa LPS 60 μg/mL, compound 10 μM; for Percent Rescue (Mort + Tail Edema): 3-dpf embryos, n=16; for Percent Rescue (Mort + Tail Edema) / rescue of tail edema and mortality (sepsis rescue rate) at 3-dpf: 24 hours; for 3 dpf Embryos Percent Rescue (Mort + Tail Edema): initial 3-dpf screen shown for reference. The method, then:
Healthy, normally developing embryos collected from the adult AB zebrafish spawning events were treated with 75 μM of 1-phenyl 2-thiourea (PTU) in EM prior to 24 hours post fertilization (hpf) to block pigmentation formation (Karlsson et al, 2001). These embryos were then placed into an incubator at 28.5° C. until they reached 3-dpf. Embryos were then removed from the incubator and plated individually into the wells of 96 well plates containing 50 μL of EM.
A super stock of 120 μg/mL of P. aeruginosa LPS was made up in EM in a glass container. This stock was then used to make sub stocks of 120 μg/mL P. aeruginosa LPS (positive control) and 120 μg/mL P. aeruginosa LPS containing 20 μM of test drug in glass scintillation vials. Immediately after the sub stocks were made, the wells were dosed with either 50 μL of 120 μg/mL of P. aeruginosa, 120 μg/mL of P. aeruginosa with 20 μM of test drug, or EM (1:1 Dilution). Each 96 well plate had one LPS positive control (n=16), 4 different test drugs with P. aeruginosa LPS (n=16 per drug), and one negative control (n=16). Once the plates were dosed, they were covered with parafilm and placed into an incubator at 28.5° C. The plates were removed at 6- and 24-hours post exposure to be scored for tail edema and mortality. All 644 drugs evaluated for rescue from mortality and tail edema induced by P. aeruginosa LPS exposure as compared to LPS-treated controls after 24 hours of exposure.
3-dpf embryos were challenged with 60 μg/mL P. aeruginosa LPS in combination with single 10 μM concentration of each compound for 24 hours (n=16 fish per compound). […] Other 29 compounds exceeded 60% rescue of tail edema and mortality at 24 hours post exposure.

Test [2] concerns 5-dpf zebrafish larvae challenged with P. aeruginosa LPS 60 μg/mL. The note with it: compound 10 μM; for 5 dpf Embryos Percent Rescue (Mort + Tail Edema): 5-dpf larvae. From the text: Confirmatory testing followed the same methods as the initial testing but used 5-dpf larvae instead of the 3-dpf larvae that were used for the initial screening because they were easier to handle and replicated the methods of Philip et al. (2017).
Next, follow-on 5-dpf screening was implemented to confirm initial screening with more larvae. Zebrafish swim faster at 5-dpf (requiring more time to load 96 plates), and all major organ systems are functioning at 5-dpf and thus determined as advantageous for follow-on confirmation.

Test [3] deals with zebrafish (4 dpf pre-treated, LPS exposure at 5-dpf) challenged with P. aeruginosa LPS 60 μg/mL. The following applies: for 24 hour Tail Edema, No-Drug Pretreatment / 24 Hour Mortality and Tail Edema, Drug Pretreatment / 24 Hour Mortality, Drug Pretreatment / 24 hour Tail Edema, Drug Pretreatment / 24 Hour Mortality and Tail Edema, No-Drug Pretreatment / 24 Hour Mortality, No Drug Pretreatment: number of n = 16 fish; for 24 hour Tail Edema, No-Drug Pretreatment: 10 μM drug with LPS 60 μg/mL; for 24 hour Tail Edema, No-Drug Pretreatment / 24 Hour Mortality and Tail Edema, No-Drug Pretreatment / 24 Hour Mortality, No Drug Pretreatment: no 24-hour pre-treatment; for 24 Hour Mortality and Tail Edema, Drug Pretreatment / 24 Hour Mortality, Drug Pretreatment: 24-hour 10 μM drug pre-treatment; for 24 hour Tail Edema, Drug Pretreatment: 24-hour 10 μM drug pre-treatment before LPS 60 μg/mL. The method, then:
Drugs identified with >80% rescue were subjected to additional testing. Drug pretreatment for 24 hours prior to LPS challenge was evaluated to determine if any prophylactic benefit could be realized with any of the top rescue drugs. The intent was to determine if drug pre-treatment might be used at the point of injury as a preventative therapeutic before the onset of infection and development of sepsis. Parallel groups of fish received a 24-hour drug pre-treatment or no drug pre-treatment prior to LPS challenge. For this test, 4 dpf PTU-treated zebrafish embryos were placed into 96 well plates containing 100 μL of EM. […] All plates were covered with parafilm and placed into an incubator at 28.5° C. for 24 hours. […] Once the plates were dosed, they were covered with parafilm and placed into an incubator at 28.5° C. The plates were removed at 6- and 24-hours post exposure and scored for tail edema and mortality. Once the 24-hour tail edema and mortality endpoints were collected, a neurobehavioral test was conducted as described in section 2.8.

Consider `O=C(NCCN1CCOCC1)c1ccc(Cl)cc1` [Compound 5, Moclobemide], for which, in test [1], the “Percent Rescue (Mort + Tail Edema)” value worked out at 75%; the “rescue of tail edema and mortality (sepsis rescue rate) at 3-dpf” value (shortened to “rescue … at 3-dpf”) was determined as 75%; the “3 dpf Embryos Percent Rescue (Mort + Tail Edema)” value (“3 dpf Embryos Percent Rescue” for short) was found to be 75%. Moreover, in test [2], the “5 dpf Embryos Percent Rescue (Mort + Tail Edema)” value (“5 dpf Embryos Percent Rescue” below) was 81%; the “rescue of tail edema and mortality (sepsis rescue rate) at 5-dpf” value (“rescue … at 5-dpf” below) turned out to be 81%. Also, in test [3], the “24 hour Tail Edema, No-Drug Pretreatment” value stood at 0 fish; the “24 Hour Mortality and Tail Edema, Drug Pretreatment” value is 16 fish; the “24 Hour Mortality, Drug Pretreatment” value turned out to be 16 fish; the “24 hour Tail Edema, Drug Pretreatment” value amounted to 0 fish. Further, in test [3], the “24 Hour Mortality and Tail Edema, No-Drug Pretreatment” value amounted to 16 fish; the “24 Hour Mortality, No Drug Pretreatment” value is 16 fish.
On to `OCCOCCN1CCN(C2=Nc3ccccc3Sc3ccccc32)CC1` [Compound 11, Quetiapine (hemifumarate)], for which, in test [1], the “Percent Rescue (Mort + Tail Edema)” value is reported as 94%; the “rescue … at 3-dpf” value turned out to be 94%; the “3 dpf Embryos Percent Rescue” value stood at 94%. Also, in test [2], the “5 dpf Embryos Percent Rescue” value was determined as 81%; the “rescue … at 5-dpf” value worked out at 81%. Moreover, in test [3], the “24 hour Tail Edema, No-Drug Pretreatment” value was 1 fish; the “24 Hour Mortality and Tail Edema, Drug Pretreatment” value is 16 fish; the “24 Hour Mortality, Drug Pretreatment” value was found to be 15 fish; the “24 hour Tail Edema, Drug Pretreatment” value turned out to be 1 fish. In test [3], the “24 Hour Mortality and Tail Edema, No-Drug Pretreatment” value was found to be 16 fish; the “24 Hour Mortality, No Drug Pretreatment” value is listed as 15 fish.
For the compound `O=C1NCC2(CCN(CCc3ccccc3)CC2)O1` [Compound 17, Fenspiride hydrochloride], in test [1], the “Percent Rescue (Mort + Tail Edema)” value is recorded as 63%; the “rescue … at 3-dpf” value is 63%; the “3 dpf Embryos Percent Rescue” value worked out at 63%. Also, in test [2], the “5 dpf Embryos Percent Rescue” value was found to be 88%; the “rescue … at 5-dpf” value is 88%. In addition, in test [3], the “24 hour Tail Edema, No-Drug Pretreatment” value was 0 fish; the “24 Hour Mortality and Tail Edema, Drug Pretreatment” value is 16 fish; the “24 Hour Mortality, Drug Pretreatment” value is given as 16 fish; the “24 hour Tail Edema, Drug Pretreatment” value was found to be 0 fish. Further, in test [3], the “24 Hour Mortality and Tail Edema, No-Drug Pretreatment” value came to 16 fish; the “24 Hour Mortality, No Drug Pretreatment” value was 16 fish.
As for `O=C1Cc2cc(CCN3CCN(c4nsc5ccccc45)CC3)c(Cl)cc2N1` [Compound 63, Ziprasidone hydrochloride monohydrate], in test [1], the “rescue … at 3-dpf” value worked out at 44%; the “3 dpf Embryos Percent Rescue” value was 44%. In addition, in test [2], the “rescue … at 5-dpf” value is recorded as 100%. Moreover, in test [3], the “24 hour Tail Edema, No-Drug Pretreatment” value is 2 fish; the “24 Hour Mortality and Tail Edema, Drug Pretreatment” value is 4 fish; the “24 Hour Mortality, Drug Pretreatment” value was found to be 4 fish; the “24 hour Tail Edema, Drug Pretreatment” value was 0 fish. For the same compound, in test [3], the “24 Hour Mortality and Tail Edema, No-Drug Pretreatment” value turned out to be 7 fish; the “24 Hour Mortality, No Drug Pretreatment” value is 5 fish.
Turning to `CCN(CC)CCNC(=O)c1c(C)[nH]c(/C=C2\C(=O)Nc3ccc(F)cc32)c1C` [Compound 97, Sunitinib], in test [1], the “Percent Rescue (Mort + Tail Edema)” value was 81%; the “rescue … at 3-dpf” value is recorded as 81%; the “3 dpf Embryos Percent Rescue” value amounted to 81%. Further, in test [2], the “5 dpf Embryos Percent Rescue” value is recorded as 100%; the “rescue … at 5-dpf” value was found to be 100%. The “Pre-Treatment Rescue (n = 16)” value in test [3] (24-hour drug pre-treatment, P. aeruginosa LPS 60 μg/mL) is 88%. Moreover, in test [3] (no 24-hour drug pre-treatment, P. aeruginosa LPS 60 μg/mL), the “No Pre-Treatment Rescue (n = 16)” value was 69%. Besides, in test [3], the “24 hour Tail Edema, No-Drug Pretreatment” value was found to be 4 fish; the “24 Hour Mortality and Tail Edema, Drug Pretreatment” value is 4 fish; the “24 Hour Mortality, Drug Pretreatment” value is reported as 3 fish; the “24 hour Tail Edema, Drug Pretreatment” value is recorded as 1 fish. In test [3], the “24 Hour Mortality and Tail Edema, No-Drug Pretreatment” value is recorded as 7 fish; the “24 Hour Mortality, No Drug Pretreatment” value was 3 fish.
As for `COc1nc2ccc(Br)cc2cc1[C@@H](c1ccccc1)[C@@](O)(CCN(C)C)c1cccc2ccccc12` [Compound 227, Bedaquiline], in test [1], the “Percent Rescue (Mort + Tail Edema)” value was found to be 75% and the “3 dpf Embryos Percent Rescue” value is recorded as 75%. In test [2], the “5 dpf Embryos Percent Rescue” value is 75%. In test [3], the “24 hour Tail Edema, No-Drug Pretreatment” value is recorded as 0 fish; the “24 Hour Mortality and Tail Edema, Drug Pretreatment” value was 16 fish; the “24 Hour Mortality, Drug Pretreatment” value stood at 16 fish; the “24 hour Tail Edema, Drug Pretreatment” value is recorded as 0 fish. Further, in test [3], the “24 Hour Mortality and Tail Edema, No-Drug Pretreatment” value is 16 fish; the “24 Hour Mortality, No Drug Pretreatment” value was found to be 16 fish.
Take `C#CCN[C@H]1CCc2ccccc21.CS(=O)(=O)O` [Compound 314, Rasagiline mesylate]: in test [1], the “Percent Rescue (Mort + Tail Edema)” value turned out to be 63%; the “rescue … at 3-dpf” value stood at 63%; the “3 dpf Embryos Percent Rescue” value is 63%. Further, in test [2], the “5 dpf Embryos Percent Rescue” value was found to be 88%; the “rescue … at 5-dpf” value was 88%. In addition, in test [3], the “24 hour Tail Edema, No-Drug Pretreatment” value is reported as 0 fish; the “24 Hour Mortality and Tail Edema, Drug Pretreatment” value is given as 16 fish; the “24 Hour Mortality, Drug Pretreatment” value is listed as 16 fish; the “24 hour Tail Edema, Drug Pretreatment” value was 0 fish. Moreover, in test [3], the “24 Hour Mortality and Tail Edema, No-Drug Pretreatment” value was 16 fish; the “24 Hour Mortality, No Drug Pretreatment” value is recorded as 16 fish.
As for `COc1ccc2c(c1)N(C[C@H](C)CN(C)C)c1ccccc1S2` [Compound 316, Levomepromazine], in test [1], the “Percent Rescue (Mort + Tail Edema)” value worked out at 63%; the “rescue … at 3-dpf” value is given as 63%; the “3 dpf Embryos Percent Rescue” value was 63%. For the same compound, in test [2], the “5 dpf Embryos Percent Rescue” value was found to be 88%; the “rescue … at 5-dpf” value stood at 88%. Besides, in test [3], the “24 hour Tail Edema, No-Drug Pretreatment” value is 1 fish; the “24 Hour Mortality and Tail Edema, Drug Pretreatment” value was 16 fish; the “24 Hour Mortality, Drug Pretreatment” value worked out at 16 fish; the “24 hour Tail Edema, Drug Pretreatment” value was 0 fish. Further, in test [3], the “24 Hour Mortality and Tail Edema, No-Drug Pretreatment” value came out at 16 fish; the “24 Hour Mortality, No Drug Pretreatment” value amounted to 15 fish.
Alverine (citrate) [Compound 138]: in test [1], the “Percent Rescue (Mort + Tail Edema)” value is 69% and the “3 dpf Embryos Percent Rescue” value was found to be 69%. For the same compound, in test [2], the “5 dpf Embryos Percent Rescue” value amounted to 38%.
Take Bedaquiline fumarate [Compound 474]: in test [1], the “Percent Rescue (Mort + Tail Edema)” value was found to be 94% and the “3 dpf Embryos Percent Rescue” value was determined as 94%. Further, the “5 dpf Embryos Percent Rescue” value in test [2] was found to be 0%.
With Gabexate (mesylate) [Compound 8], in test [1], the “Percent Rescue (Mort + Tail Edema)” value was determined as 88% and the “3 dpf Embryos Percent Rescue” value stood at 88%. In addition, the “5 dpf Embryos Percent Rescue” value in test [2] stood at 31%.
For Lumateperone (tosylate) [Compound 30], in test [1], the “Percent Rescue (Mort + Tail Edema)” value is given as 75% and the “3 dpf Embryos Percent Rescue” value is recorded as 75%. For the same compound, the “5 dpf Embryos Percent Rescue” value in test [2] worked out at 19%.
